# According to patent publication US20240393292A1, “ALLERGY ANTIGEN AND EPITOPE THEREOF” (HOYU CO., LTD., priority 2019, published 2024):
# Test system: IgE antibodies from patients
# Assay: Wheat epitope mapping (2): overlapping 10-amino-acid peptide fragments shifted by one amino acid
# Format: binding, human
# Settings: partial sequence
# Summary of the method: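 Residual binding was banded as <30% none, 30–<50% poor, 50–<70% somewhat poor and ≥70% retained, relative to the parent overlapping sequence set to 100%. Values were chemiluminescent IgE signals from patient sera after subtracting secondary-antibody-only controls. The peptides were spot-synthesised 10-mers shifted by one amino acid.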
# [1] = serum of patient P50 (child, general immediate type allergy to wheat)
# [2] = serum of patient G7 (adult, general immediate type allergy to wheat)
substance,measurement,setting,value
2653 (EAAE; REGION 1..4: note = epitope) [compound 2653],"Epitope sequence binding to IgE antibody, rank of the sequence",serum of patient P31 (WDEIA),Key
2655 (EAAEMNK; REGION 1..7: note = epitope) [compound 2655],"Epitope sequence binding to IgE antibody, rank of the sequence",serum of patient P32 (WDEIA),Preferably
2658 (FEKEAAE; REGION 1..7: note = epitope) [compound 2658],"Epitope sequence binding to IgE antibody, rank of the sequence",serum of patient P35 (WDEIA),Key
2659 (EAAEMNKRSF; REGION 1..10: note = epitope) [compound 2659],"Epitope sequence binding to IgE antibody, rank of the sequence",serum of patient P35 (WDEIA),Preferably
2660 (EMNKRSF; REGION 1..7: note = epitope) [compound 2660],"Epitope sequence binding to IgE antibody, rank of the sequence",serum of patient P35 (WDEIA),Key
2663 (FEKEAA; REGION 1..6: note = epitope) [compound 2663],"Epitope sequence binding to IgE antibody, rank of the sequence",[1],Preferably
2664 (FEKEA; REGION 1..5: note = epitope) [compound 2664],"Epitope sequence binding to IgE antibody, rank of the sequence",[1],Key
2668 (KEAAE; REGION 1..5: note = epitope) [compound 2668],"Epitope sequence binding to IgE antibody, rank of the sequence","serum of patient P57 (child, general immediate type allergy to wheat)",Preferably
2671 (AEMNKRSFK; REGION 1..9: note = epitope) [compound 2671],"Epitope sequence binding to IgE antibody, rank of the sequence","serum of patient G5 (adult, general immediate type allergy to wheat)",Key
2672 (RFEKEAAEMN; REGION 1..10: note = epitope) [compound 2672],"Epitope sequence binding to IgE antibody, rank of the sequence",[2],Key
2673 (EAAEMNKR; REGION 1..8: note = epitope) [compound 2673],"Epitope sequence binding to IgE antibody, rank of the sequence",[2],Key
2676 (YKGPTL; REGION 1..6: note = epitope) [compound 2676],"Epitope sequence binding to IgE antibody, rank of the sequence",serum of patient P8 (WDEIA),Key
2677 (YKGPTL; REGION 1..6: note = epitope) [compound 2677],"Epitope sequence binding to IgE antibody, rank of the sequence",serum of patient P12 (WDEIA),Key
2679 (YKGPTL; REGION 1..6: note = epitope) [compound 2679],"Epitope sequence binding to IgE antibody, rank of the sequence",serum of patient P14 (WDEIA),Key
2680 (YKGPTL; REGION 1..6: note = epitope) [compound 2680],"Epitope sequence binding to IgE antibody, rank of the sequence",serum of patient P17 (WDEIA),Key
2682 (YKGPTL; REGION 1..6: note = epitope) [compound 2682],"Epitope sequence binding to IgE antibody, rank of the sequence",serum of patient P22 (WDEIA),Preferably
2683 (KGPTL; REGION 1..5: note = epitope) [compound 2683],"Epitope sequence binding to IgE antibody, rank of the sequence",serum of patient P22 (WDEIA),Key
2684 (YKGPTL; REGION 1..6: note = epitope) [compound 2684],"Epitope sequence binding to IgE antibody, rank of the sequence",serum of patient P26 (WDEIA),Key
2685 (YKGPTL; REGION 1..6: note = epitope) [compound 2685],"Epitope sequence binding to IgE antibody, rank of the sequence",serum of patient P27 (WDEIA),Preferably
2688 (YKGPTL; REGION 1..6: note = epitope) [compound 2688],"Epitope sequence binding to IgE antibody, rank of the sequence",serum of patient P29 (WDEIA),Key
2689 (YKGPTL; REGION 1..6: note = epitope) [compound 2689],"Epitope sequence binding to IgE antibody, rank of the sequence",serum of patient P30 (WDEIA),Key
2692 (YKGPTL; REGION 1..6: note = epitope) [compound 2692],"Epitope sequence binding to IgE antibody, rank of the sequence",serum of patient P33 (WDEIA),Key
2693 (YKGPTL; REGION 1..6: note = epitope) [compound 2693],"Epitope sequence binding to IgE antibody, rank of the sequence",serum of patient P34 (WDEIA),Key
2694 (YKGPTL; REGION 1..6: note = epitope) [compound 2694],"Epitope sequence binding to IgE antibody, rank of the sequence",serum of patient P35 (WDEIA),Key
2695 (YKGPTL; REGION 1..6: note = epitope) [compound 2695],"Epitope sequence binding to IgE antibody, rank of the sequence",serum of patient P36 (WDEIA),Key
2696 (YKGPTL; REGION 1..6: note = epitope) [compound 2696],"Epitope sequence binding to IgE antibody, rank of the sequence","serum of patient G3 (adult, general immediate type allergy to wheat)",Key
2697 (YKGPTL; REGION 1..6: note = epitope) [compound 2697],"Epitope sequence binding to IgE antibody, rank of the sequence","serum of patient G6 (adult, general immediate type allergy to wheat)",Key
2698 (KGPTL; REGION 1..5: note = epitope) [compound 2698],"Epitope sequence binding to IgE antibody, rank of the sequence",[2],Key
2699 (YKGPTL; REGION 1..6: note = epitope) [compound 2699],"Epitope sequence binding to IgE antibody, rank of the sequence","serum of patient G8 (adult, general immediate type allergy to wheat)",Key
2700 (YKGPTL; REGION 1..6: note = epitope) [compound 2700],"Epitope sequence binding to IgE antibody, rank of the sequence","serum of patient G9 (adult, general immediate type allergy to wheat)",Key
2703 (YKIGGIGTV; REGION 1..9: note = epitope) [compound 2703],"Epitope sequence binding to IgE antibody, rank of the sequence",serum of patient P3 (WDEIA),Preferably
2704 (YKIGGI; REGION 1..6: note = epitope) [compound 2704],"Epitope sequence binding to IgE antibody, rank of the sequence",serum of patient P3 (WDEIA),Key
2706 (YKIGGIGTV; REGION 1..9: note = epitope) [compound 2706],"Epitope sequence binding to IgE antibody, rank of the sequence",serum of patient P8 (WDEIA),Preferably
2707 (YKIGGIGT; REGION 1..8: note = epitope) [compound 2707],"Epitope sequence binding to IgE antibody, rank of the sequence",serum of patient P8 (WDEIA),Key
2709 (YKIGGIGT; REGION 1..8: note = epitope) [compound 2709],"Epitope sequence binding to IgE antibody, rank of the sequence",serum of patient P16 (WDEIA),Preferably
2710 (YKIGG; REGION 1..5: note = epitope) [compound 2710],"Epitope sequence binding to IgE antibody, rank of the sequence",serum of patient P16 (WDEIA),Key
2712 (YKIGG; REGION 1..5: note = epitope) [compound 2712],"Epitope sequence binding to IgE antibody, rank of the sequence",serum of patient P17 (WDEIA),Preferably
2713 (KIGG; REGION 1..4: note = epitope) [compound 2713],"Epitope sequence binding to IgE antibody, rank of the sequence",serum of patient P17 (WDEIA),Key
2714 (GIGTVPVGRV; REGION 1..10: note = epitope) [compound 2714],"Epitope sequence binding to IgE antibody, rank of the sequence",serum of patient P17 (WDEIA),Key
2716 (YKIGGI; REGION 1..6: note = epitope) [compound 2716],"Epitope sequence binding to IgE antibody, rank of the sequence",serum of patient P18 (WDEIA),Preferably
2717 (YKIGG; REGION 1..5: note = epitope) [compound 2717],"Epitope sequence binding to IgE antibody, rank of the sequence",serum of patient P18 (WDEIA),Key
2718 (GIGTVPVGRV; REGION 1..10: note = epitope) [compound 2718],"Epitope sequence binding to IgE antibody, rank of the sequence",serum of patient P18 (WDEIA),Key
2719 (YKIGG; REGION 1..5: note = epitope) [compound 2719],"Epitope sequence binding to IgE antibody, rank of the sequence",serum of patient P25 (WDEIA),Key
2720 (IGGIGTVPVG; REGION 1..10: note = epitope) [compound 2720],"Epitope sequence binding to IgE antibody, rank of the sequence",serum of patient P25 (WDEIA),Preferably
2721 (GIGTVPVG; REGION 1..8: note = epitope) [compound 2721],"Epitope sequence binding to IgE antibody, rank of the sequence",serum of patient P25 (WDEIA),Key
2722 (YKIGG; REGION 1..5: note = epitope) [compound 2722],"Epitope sequence binding to IgE antibody, rank of the sequence",serum of patient P26 (WDEIA),Preferably
2723 (KIGG; REGION 1..4: note = epitope) [compound 2723],"Epitope sequence binding to IgE antibody, rank of the sequence",serum of patient P26 (WDEIA),Key
2724 (GIGTVPVGRV; REGION 1..10: note = epitope) [compound 2724],"Epitope sequence binding to IgE antibody, rank of the sequence",serum of patient P26 (WDEIA),Key
2725 (YKIGG; REGION 1..5: note = epitope) [compound 2725],"Epitope sequence binding to IgE antibody, rank of the sequence",serum of patient P27 (WDEIA),Preferably
2726 (KIGG; REGION 1..4: note = epitope) [compound 2726],"Epitope sequence binding to IgE antibody, rank of the sequence",serum of patient P27 (WDEIA),Key
2727 (GIGTVPVGR; REGION 1..9: note = epitope) [compound 2727],"Epitope sequence binding to IgE antibody, rank of the sequence",serum of patient P27 (WDEIA),Key
2730 (YKIGGIGTV; REGION 1..9: note = epitope) [compound 2730],"Epitope sequence binding to IgE antibody, rank of the sequence",serum of patient P28 (WDEIA),Preferably
